# According to ChEMBL document CHEMBL1641588, “3-[Benzimidazo- and 3-[benzothiadiazoleimidazo-(1,2-c)quinazolin-5-yl]-2H-chromene-2-ones as potent antimicrobial agents” (2011):
# Test system: Candida albicans
# Test: Antifungal activity against Candida albicans at 1000 ug/mL after 72 hrs by agar diffusion assay
# Type: functional
# Settings: read-out: IZ
row,SMILES,zone of inhibition at 1000 µg/mL [mm]
1,O=c1oc2c(Br)cccc2cc1-c1nc2ccccc2c2nc3c4nsnc4ccc3n12,29
2,O=c1oc2c(Cl)cc(Cl)cc2cc1-c1nc2ccccc2c2nc3c4nsnc4ccc3n12,26
3,O=c1oc2c(Br)cc(Br)cc2cc1-c1nc2ccccc2c2nc3c4nsnc4ccc3n12,32

# Test system: Streptococcus pyogenes
# Test: Antibacterial activity against Streptococcus pyogenes by liquid dilution method
# Type: functional
# Settings: not given
row,MIC [µg/mL],SMILES
1,40,O=c1oc2c(Br)cccc2cc1-c1nc2ccccc2c2nc3c4nsnc4ccc3n12
2,35,O=c1oc2c(Cl)cc(Cl)cc2cc1-c1nc2ccccc2c2nc3c4nsnc4ccc3n12
3,15,O=c1oc2c(Br)cc(Br)cc2cc1-c1nc2ccccc2c2nc3c4nsnc4ccc3n12

# Test system: Staphylococcus aureus
# Test: Antibacterial activity against Staphylococcus aureus at 1000 ug/mL after 72 hrs by agar diffusion assay
# Type: functional
# Settings: read-out: IZ
row,SMILES,zone of inhibition at 1000 µg/mL [mm]
1,O=c1oc2c(Br)cccc2cc1-c1nc2ccccc2c2nc3c4nsnc4ccc3n12,35
2,O=c1oc2c(Cl)cc(Cl)cc2cc1-c1nc2ccccc2c2nc3c4nsnc4ccc3n12,39
3,O=c1oc2c(Br)cc(Br)cc2cc1-c1nc2ccccc2c2nc3c4nsnc4ccc3n12,48

# Test system: Salmonella typhimurium
# Test: Antibacterial activity against Salmonella Typhimurium at 1000 ug/mL after 72 hrs by agar diffusion assay
# Type: functional, Salmonella enterica subsp. enterica serovar Typhimurium
# Settings: Salmonella enterica, read-out: IZ
row,SMILES,zone of inhibition at 1000 µg/mL [mm]
1,O=c1oc2c(Br)cccc2cc1-c1nc2ccccc2c2nc3c4nsnc4ccc3n12,29
2,O=c1oc2c(Cl)cc(Cl)cc2cc1-c1nc2ccccc2c2nc3c4nsnc4ccc3n12,31
3,O=c1oc2c(Br)cc(Br)cc2cc1-c1nc2ccccc2c2nc3c4nsnc4ccc3n12,45

# Test system: Escherichia coli
# Test: Antibacterial activity against Escherichia coli by liquid dilution method
# Type: functional
# Settings: not given
row,MIC [µg/mL],SMILES
1,35,O=c1oc2c(Br)cccc2cc1-c1nc2ccccc2c2nc3c4nsnc4ccc3n12
2,30,O=c1oc2c(Cl)cc(Cl)cc2cc1-c1nc2ccccc2c2nc3c4nsnc4ccc3n12
3,10,O=c1oc2c(Br)cc(Br)cc2cc1-c1nc2ccccc2c2nc3c4nsnc4ccc3n12

# Test system: Streptococcus pyogenes
# Test: Antibacterial activity against Streptococcus pyogenes at 1000 ug/mL after 72 hrs by agar diffusion assay
# Type: functional
# Settings: read-out: IZ
row,SMILES,zone of inhibition at 1000 µg/mL [mm]
1,O=c1oc2c(Br)cccc2cc1-c1nc2ccccc2c2nc3c4nsnc4ccc3n12,23
2,O=c1oc2c(Cl)cc(Cl)cc2cc1-c1nc2ccccc2c2nc3c4nsnc4ccc3n12,20
3,O=c1oc2c(Br)cc(Br)cc2cc1-c1nc2ccccc2c2nc3c4nsnc4ccc3n12,37

# Test system: Escherichia coli
# Test: Antibacterial activity against Escherichia coli at 1000 ug/mL after 72 hrs by agar diffusion assay
# Type: functional
# Settings: read-out: IZ
row,SMILES,zone of inhibition at 1000 µg/mL [mm]
1,O=c1oc2c(Br)cccc2cc1-c1nc2ccccc2c2nc3c4nsnc4ccc3n12,31
2,O=c1oc2c(Cl)cc(Cl)cc2cc1-c1nc2ccccc2c2nc3c4nsnc4ccc3n12,32
3,O=c1oc2c(Br)cc(Br)cc2cc1-c1nc2ccccc2c2nc3c4nsnc4ccc3n12,42

# Test system: Aspergillus niger
# Test: Antifungal activity against Aspergillus niger at 1000 ug/mL after 72 hrs by agar diffusion assay
# Type: functional
# Settings: read-out: IZ
row,SMILES,zone of inhibition at 1000 µg/mL [mm]
1,O=c1oc2c(Br)cccc2cc1-c1nc2ccccc2c2nc3c4nsnc4ccc3n12,31
2,O=c1oc2c(Cl)cc(Cl)cc2cc1-c1nc2ccccc2c2nc3c4nsnc4ccc3n12,33
3,O=c1oc2c(Br)cc(Br)cc2cc1-c1nc2ccccc2c2nc3c4nsnc4ccc3n12,34

# Test system: Salmonella typhimurium
# Test: Antibacterial activity against Salmonella Typhimurium by liquid dilution method
# Type: functional, Salmonella enterica subsp. enterica serovar Typhimurium
# Settings: Salmonella enterica
row,MIC [µg/mL],SMILES
1,35,O=c1oc2c(Br)cccc2cc1-c1nc2ccccc2c2nc3c4nsnc4ccc3n12
2,25,O=c1oc2c(Cl)cc(Cl)cc2cc1-c1nc2ccccc2c2nc3c4nsnc4ccc3n12
3,2.5,O=c1oc2c(Br)cc(Br)cc2cc1-c1nc2ccccc2c2nc3c4nsnc4ccc3n12

# Test system: Klebsiella pneumoniae
# Test: Antibacterial activity against Klebsiella pneumoniae at 1000 ug/mL after 72 hrs by agar diffusion assay
# Type: functional
# Settings: read-out: IZ
row,SMILES,zone of inhibition at 1000 µg/mL [mm]
1,O=c1oc2c(Br)cccc2cc1-c1nc2ccccc2c2nc3c4nsnc4ccc3n12,30
2,O=c1oc2c(Cl)cc(Cl)cc2cc1-c1nc2ccccc2c2nc3c4nsnc4ccc3n12,34
3,O=c1oc2c(Br)cc(Br)cc2cc1-c1nc2ccccc2c2nc3c4nsnc4ccc3n12,46

# Test system: Bacillus subtilis
# Test: Antibacterial activity against Bacillus subtilis at 1000 ug/mL after 72 hrs by agar diffusion assay
# Type: functional
# Settings: read-out: IZ
row,SMILES,zone of inhibition at 1000 µg/mL [mm]
1,O=c1oc2c(Br)cccc2cc1-c1nc2ccccc2c2nc3c4nsnc4ccc3n12,29
2,O=c1oc2c(Cl)cc(Cl)cc2cc1-c1nc2ccccc2c2nc3c4nsnc4ccc3n12,34
3,O=c1oc2c(Br)cc(Br)cc2cc1-c1nc2ccccc2c2nc3c4nsnc4ccc3n12,41

# Test system: Aspergillus flavus
# Test: Antifungal activity against Aspergillus flavus at 1000 ug/mL after 72 hrs by agar diffusion assay
# Type: functional
# Settings: read-out: IZ
row,SMILES,zone of inhibition at 1000 µg/mL [mm]
1,O=c1oc2c(Br)cccc2cc1-c1nc2ccccc2c2nc3c4nsnc4ccc3n12,33
2,O=c1oc2c(Cl)cc(Cl)cc2cc1-c1nc2ccccc2c2nc3c4nsnc4ccc3n12,29
3,O=c1oc2c(Br)cc(Br)cc2cc1-c1nc2ccccc2c2nc3c4nsnc4ccc3n12,37

# Test system: Klebsiella pneumoniae
# Test: Antibacterial activity against Klebsiella pneumoniae by liquid dilution method
# Type: functional
# Settings: not given
row,MIC [µg/mL],SMILES
1,25,O=c1oc2c(Br)cccc2cc1-c1nc2ccccc2c2nc3c4nsnc4ccc3n12
2,35,O=c1oc2c(Cl)cc(Cl)cc2cc1-c1nc2ccccc2c2nc3c4nsnc4ccc3n12
3,5,O=c1oc2c(Br)cc(Br)cc2cc1-c1nc2ccccc2c2nc3c4nsnc4ccc3n12

# Test system: Bacillus subtilis
# Test: Antibacterial activity against Bacillus subtilis by liquid dilution method
# Type: functional
# Settings: not given
row,MIC [µg/mL],SMILES
1,40,O=c1oc2c(Br)cccc2cc1-c1nc2ccccc2c2nc3c4nsnc4ccc3n12
2,45,O=c1oc2c(Cl)cc(Cl)cc2cc1-c1nc2ccccc2c2nc3c4nsnc4ccc3n12
3,10,O=c1oc2c(Br)cc(Br)cc2cc1-c1nc2ccccc2c2nc3c4nsnc4ccc3n12

# Test system: Aspergillus flavus
# Test: Antifungal activity against Aspergillus flavus by liquid dilution method
# Type: functional
# Settings: not given
row,MIC [µg/mL],SMILES
1,50,O=c1oc2c(Br)cccc2cc1-c1nc2ccccc2c2nc3c4nsnc4ccc3n12
2,50,O=c1oc2c(Cl)cc(Cl)cc2cc1-c1nc2ccccc2c2nc3c4nsnc4ccc3n12
3,35,O=c1oc2c(Br)cc(Br)cc2cc1-c1nc2ccccc2c2nc3c4nsnc4ccc3n12

# Test system: Aspergillus niger
# Test: Antifungal activity against Aspergillus niger by liquid dilution method
# Type: functional
# Settings: not given
row,MIC [µg/mL],SMILES
1,35,O=c1oc2c(Br)cccc2cc1-c1nc2ccccc2c2nc3c4nsnc4ccc3n12
2,40,O=c1oc2c(Cl)cc(Cl)cc2cc1-c1nc2ccccc2c2nc3c4nsnc4ccc3n12
3,25,O=c1oc2c(Br)cc(Br)cc2cc1-c1nc2ccccc2c2nc3c4nsnc4ccc3n12

# Test system: Staphylococcus aureus
# Test: Antibacterial activity against Staphylococcus aureus by liquid dilution method
# Type: functional
# Settings: not given
row,MIC [µg/mL],SMILES
1,30,O=c1oc2c(Br)cccc2cc1-c1nc2ccccc2c2nc3c4nsnc4ccc3n12
2,35,O=c1oc2c(Cl)cc(Cl)cc2cc1-c1nc2ccccc2c2nc3c4nsnc4ccc3n12
3,5,O=c1oc2c(Br)cc(Br)cc2cc1-c1nc2ccccc2c2nc3c4nsnc4ccc3n12

# Test system: Candida albicans
# Test: Antifungal activity against Candida albicans by liquid dilution method
# Type: functional
# Settings: not given
row,MIC [µg/mL],SMILES
1,35,O=c1oc2c(Br)cccc2cc1-c1nc2ccccc2c2nc3c4nsnc4ccc3n12
2,45,O=c1oc2c(Cl)cc(Cl)cc2cc1-c1nc2ccccc2c2nc3c4nsnc4ccc3n12
3,40,O=c1oc2c(Br)cc(Br)cc2cc1-c1nc2ccccc2c2nc3c4nsnc4ccc3n12
